The values below come from US8735178B2, “Withanolides, probes and binding targets and methods of use thereof” (University of Kentucky Research Foundation, priority 2006, dated 2014).

One experiment addresses bovine 20S proteasome (Bos taurus, UniProt Q32KL2). As to the kind of experiment: 20S proteasome enzyme kinetic assay (chymotrypsin-like activity, Suc-LLVY-AMC). The format is biochemical. On the procedure: The chymotrypsin-like activity was assayed using the fluorogenic peptide substrates Suc-Leu-Leu-Val-Tyr-AMC (Sigma-Aldrich). […] Fluorescence was quantified as arbitrary units and progression curves were plotted for each reaction as a function of time. kobserved/[I] values were obtained using PRISM program by nonlinear least squares fit of the data to the following equation: fluorescence=vst+[(v0−vs)/kobserved][1−exp(−kobserved t)], where v0 and vs are the initial and final velocities, respectively, and kobserved is the reaction rate constant. […] Reactions were performed using inhibitor concentrations that were <100-fold of those of the proteasome assayed.

Experiment [1] has as its system embryonic fibroblast cell lines MFT-6 (Vim+/+) and MFT-16 (Vim−/−). As to the kind of experiment: Apoptosis by flow cytometry (annexin V-FITC / propidium iodide). The format is cell-based, mouse. Particulars: 5 μM, 24 hours. On the procedure: Referring to FIG. 4c, embryonic fibroblast cell lines derived from vimentin-deficient mice and wild-type littermates were treated with vehicle or 5 μM WFA for 24 hours. Cells were harvested and stained with annexin V-FITC and propidium iodide and extent of apoptosis assessed by flow cytometry. The fold-apoptotis for drug over vehicle-treated samples for each cell line was plotted (n=2 experiments).
To assess the apoptosis activity of WFA, embryonic fibroblast vimentin-deficient cell lines (Vim^−/−; MFT-16) and wild-type (Vim^+/+; MFT-6) cells were treated with 5 μM WFA or an equivalent amount of vehicle (DMSO) for 24 hours at 37° C.-5% CO2 conditions in complete medium. Apoptotic cells were measured by using the VYBRANT™ Apoptosis Assay Kit (Molecular Probes) according to the manufacturer's instructions. Flow cytometric analysis was conducted at the University of Kentucky Core Flow Cytometry Center.
A general note: Flow cytometry measures light scatter and fluorescence of single cells or particles in a stream.

The subject of experiment [2] is corneal neovascularization. As to the kind of experiment: Injury-induced corneal neovascularization assay in mice. The format is in vivo, mouse. To be noted: 2 mg/kg i.p. daily for 10 days. The source says: Since WFA exerts potent angiogenesis inhibitory activity in vivo, drug activity on de novo capillary growth in vimentin deficiency was investigated.
Vimentin homozygous-deficient mice (vim^−/−) and vimentin-heterozygous-deficient mice (vim^+/−) in the 129/Svev background were obtained from David Markovitz (University of Michigan Medical Center) and breeding colonies established at the University of Kentucky. All mice were housed in specific pathogen-free cages in designated lab animal housing facilities. Age-matched littermates were genotyped by polymerase chain reaction, as described, and vim^−/− and vim^+/+ mice were employed for corneal vascularization experiments. In brief, mice between 4-6 weeks of age were anesthetized by intraperiteoneal injection (i.p.) of ketamine and xylazine. Corneas were topically anesthetized by application of proparacain drop and 1 microliter drop of dilute 0.1 M sodium hydroxide was applied for 1 minute. […] Upon recovery from anesthesia, mice were replaced in cages and monitored by trained personnel for resumption of normal activity. […] Fluorescence was quantified by importing images in NIH ImageJ, as taught by Ambati, B. K. et al., Sustained inhibition of corneal neovascularization by genetic ablation of CCR5, Invest. […]

Experiment [3] addresses T1, tetrameric soluble hamster vimentin (Mesocricetus auratus, UniProt P02544).
T1 construct: purchased Vimentin Filament Biochemistry Kit, Denver, Colo; Cytoskeleton is named
As to the kind of experiment: In vitro vimentin filament polymerization (transmission electron microscopy). Format: biochemical. To be noted: 25 μM, 170 mM NaCl, 1 hour at 37° C. On the procedure: FIG. 3a depicts tetrameric soluble hamster vimentin polymerized in the presence of 170 mM NaCl by incubation at 37° C. for 1 hour. The protein was fixed with 0.5% glutaraldehyde, stained with uranyl acetate and observed by transmission electron microscopy.
Tetrameric hamster vimentin was subjected to in vitro filament formation assays using vendor-supplied reagents and instructions (Vimentin Filament Biochemistry Kit, Denver, Colo.). Vimentin (0.5 mg/ml) was mixed with WFA (5 μM or 25 μM), DMSO or 12D-WS (25 μM) in filament polymerization buffer (170 mM NaCl final concentration) and incubated for 1 hour at 37° C. Protein was immediately fixed in 0.5% glutarldehyde and stained with uranyl acetate and applied to copper grids for EM staining (University of Kentucky Core Microscopy and Imaging Facilities). Over 100 grids for each treatment were viewed at 80 kV on a FEI Biotwin 12 transmission electron microscope and 25 representative images were collected. The experiment was repeated in entirety.

In a further experiment the test system is vimentin in HUVECs. As to the kind of experiment: Western blot of soluble vimentin in WFA-treated HUVECs. The format is cell-based, human. On the procedure: (§1) BAECs treated with DMSO (FIGS. 3e, 3g, 3i) or 3 μM WFA (FIGS. 3f, 3h, 3j) for 18 hours were stained for vimentin using a monoclonal anti-vimentin antibody (green) and co-stained with phalloidin-rhodamine (red). The vimentin (FIGS. 3e, 3f) and phalloidin-stained images (FIGS. 3g, 3h), in fluorescence overlap, reveal the presence of numerous cytoplasmic particulate granules that co-stain for vimentin and disrupted F-actin in WFA-treated cells compared to controls (FIGS. 3i, 3j). […] FIG. 3l depicts higher concentrations and longer periods of exposure to WFA (4 hours) cause reduction in levels of the 56 kDa protein (asterisk) and increased abundance of cleavage products of vimentin (arrows).
As it became apparent that vimentin targeting by WFA may initiate signaling events leading to cellular apoptosis, the effect of WFA on soluble tetrameric vimentin was investigated. Using western blot analysis of soluble proteins from HUVECs treated with WFA, dose-dependent (above 2 μM) increases in vimentin cleavage products became detectable by 2 hours after drug treatment (FIGS. 3k and 3l).
After treatments, cells were washed in PBS and extracts having equal amounts of proteins were subjected to SDS-PAGE on 4-20% Tris-glycine gels (BioEpress) and transferred to Immun-Blot PVDF membrane (Bio-Rad) using standard techniques. […]
(Immunoblotting shows a protein as a band on a membrane.)

Experiment [4] relates to MCF-7 cells transfected with human vimentin cDNA. As to the kind of experiment: Polyubiquitinated proteins in vimentin-transfected MCF-7 cells (anti-ubiquitin blot). The format is cell-based. Particulars: 2 μM, not in vector controls. On the procedure: Employing the widely used MCF-7 vimentin-deficient model of Bar, H. et al., Forced expression of desmin and desmin mutants in cultured cells: impact of myopathic missense mutations in the central coiled-coil domain on network formation, Exp. Cell. […] MCF-7 cells that lack endogenous IF proteins were transfected with human vimentin cDNA or a vector control and after 24 hours cells were treated with either vehicle or 2 μM WFA for 1 hour. Cell lysates were prepared and equal amounts of protein subjected to SDS-PAGE and protein blots probed with anti-ubiquitin antibody. Blots were re-probed with anti-GAPDH antibody.
MCF-7 cells were transfected with a pCMV6-XL5 vector containing the human vimentin cDNA under CMV promoter according to vendor instructions (Origene). Control samples were transfected with an empty vector (PCMV6-XL4). Transfected cells were allowed to recover for 12 hours and subsequently treated with 2 μM WFA for 18 hours. Equal amounts of protein lysates were then subjected to western blotting and probed with mouse monoclonal antibody against ubiquitin proteins.

The next experiment deals with BAECs. As to the kind of experiment: Immunostaining of vimentin and actin in BAECs. The format is cell-based, bovine. To be noted: 3 μM, 18 hours. On the procedure:
as §1
To further corroborate that vimentin aggregation by WFA treatment is associated with perturbation of the cytoskeleton structure, the drug effects in BAECs were investigated by immunostaining. […] Importantly, these vimentin particulates strongly co-stain for actin (compare FIG. 3h with FIG. 3j), exemplifying the role of the WFA-binding domain in control of cytoskeletal structure through the actin-binding activity of vimentin 2B domain.
After treatments, BAECs were washed with PBS and fixed with 4% paraformaldehyde for 5 minutes. Cells were then permeabilized with 0.1% Triton-X in PBS for 20 minutes at 4° C. and blocked for 30 minutes in 3% BSA to prevent nonspecific binding. […]

Experiment [5] concerns the target purified hamster vimentin (Mesocricetus auratus, UniProt P02544). As to the kind of experiment: LC-MS/MS mapping of the residue covalently modified by WFA. Format: binding. Particulars: tryptic digestion, molecular mass shift of 470. On the procedure: Next, to identify the amino acid residue(s) of vimentin covalently modified by WFA, purified hamster vimentin was incubated with WFA and the protein-ligand complexes subjected to tryptic digestion and LC-MS/MS analysis. […] A three-dimensional model of the WFA-vimentin complex was developed using x-ray crystal structures of vimentin and WFA. […] In this simulated model, the C3 and C6 carbons of WFA lie in close proximity to the cysteine residue in the vimentin A-helix (FIG. 2b), permitting a nucleophilic attack by this thiol group on the electrophilic carbon centers (FIG. 2c). Remarkably, the amino acid residues of vimentin (Gln324, Cys328 and Asp 331) that make contact with WFA (FIG. 2c) are identical from fish to mammals, as shown in the table below.

The target of a further experiment is soluble hamster vimentin (Mesocricetus auratus, UniProt P02544). As to the kind of experiment: In vitro ligand binding assay (WFA-B labelling, streptavidin-HRP blot). To be noted: competitor 1 hour, then 0.3 or 1 μM WFA-B 1 hour. An excerpt:
The proteins were fractionated by SDS-PAGE, blotted and biotinylated adduct was detected by streptaviding-HRP with chemiluminescence.

Experiment [6] deals with T2, 56 kDa protein (vimentin) in HUVECs (Homo sapiens, UniProt P08670).
T2 construct: host or cells: HUVECs
T2 sequence (P08670 whole entry): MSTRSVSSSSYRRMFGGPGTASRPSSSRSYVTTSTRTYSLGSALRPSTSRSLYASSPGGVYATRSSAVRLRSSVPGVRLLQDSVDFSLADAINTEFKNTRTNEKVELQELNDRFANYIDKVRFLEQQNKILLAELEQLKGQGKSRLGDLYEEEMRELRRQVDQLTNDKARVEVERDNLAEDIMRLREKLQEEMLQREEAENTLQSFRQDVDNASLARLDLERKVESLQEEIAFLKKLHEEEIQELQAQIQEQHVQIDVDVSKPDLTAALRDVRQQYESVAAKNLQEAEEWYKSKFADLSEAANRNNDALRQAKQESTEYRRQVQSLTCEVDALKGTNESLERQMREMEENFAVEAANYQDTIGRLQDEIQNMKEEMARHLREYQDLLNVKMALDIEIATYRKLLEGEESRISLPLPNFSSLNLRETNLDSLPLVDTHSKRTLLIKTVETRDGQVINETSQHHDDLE
As to the kind of experiment: WFA-B labelling of proteins in HUVECs (streptavidin-HRP blot). The format is binding. Particulars: WFA-B 2 hours, WFA-competitive. On the procedure: LC-MS/MS characterization of this protein identified the 56 kDa protein as vimentin (27% protein coverage), an IF protein that is abundant in mesenchymal cells. To further support that vimentin is bound by WFA-B in vivo, HUVECs were treated with WFA-B in the presence and absence of unconjugated WFA, and total cellular lysates were gel-fractionated and protein blots probed with streptavidin-HRP. […] This experiment was conducted using cells preincubated with DMSO or WFA for 30 minutes and subsequently with WFA-B for 2 hours. Soluble proteins extracted in 1% Triton X-100 were fractionated by SDS-PAGE and blotted. This blot, as well as those of FIGS. 1d and 1e, were developed with Streptavidin-HRP. Biotin label is incorporated in this 56 kDa protein in a WFA-competitive manner.
As shown in the blot of FIG. 1d, WFA-B binds vimentin in HUVECs. The blot of FIG. 1d was produced using cell cultures preincubated with DMSO (Veh) or with 5 μM WFA or 1 μM (WFA*) for 30 minutes and subsequently with 5 μM WFA-B for 2 hours.

soluble hamster vimentin, sequence (P02544 whole entry): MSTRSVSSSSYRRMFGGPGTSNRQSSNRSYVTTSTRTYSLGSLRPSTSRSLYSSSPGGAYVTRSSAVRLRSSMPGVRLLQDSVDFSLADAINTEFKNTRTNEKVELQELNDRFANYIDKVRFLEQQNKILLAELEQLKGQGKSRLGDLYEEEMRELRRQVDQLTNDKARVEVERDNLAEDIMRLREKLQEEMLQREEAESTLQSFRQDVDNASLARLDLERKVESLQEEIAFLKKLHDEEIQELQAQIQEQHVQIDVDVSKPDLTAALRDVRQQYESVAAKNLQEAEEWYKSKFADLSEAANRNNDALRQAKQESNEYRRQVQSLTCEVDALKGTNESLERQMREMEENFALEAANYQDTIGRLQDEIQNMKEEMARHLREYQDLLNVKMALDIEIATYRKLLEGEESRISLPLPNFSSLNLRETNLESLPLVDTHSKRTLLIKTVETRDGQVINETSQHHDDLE
T1 sequence (P02544 2-465 limits assumed): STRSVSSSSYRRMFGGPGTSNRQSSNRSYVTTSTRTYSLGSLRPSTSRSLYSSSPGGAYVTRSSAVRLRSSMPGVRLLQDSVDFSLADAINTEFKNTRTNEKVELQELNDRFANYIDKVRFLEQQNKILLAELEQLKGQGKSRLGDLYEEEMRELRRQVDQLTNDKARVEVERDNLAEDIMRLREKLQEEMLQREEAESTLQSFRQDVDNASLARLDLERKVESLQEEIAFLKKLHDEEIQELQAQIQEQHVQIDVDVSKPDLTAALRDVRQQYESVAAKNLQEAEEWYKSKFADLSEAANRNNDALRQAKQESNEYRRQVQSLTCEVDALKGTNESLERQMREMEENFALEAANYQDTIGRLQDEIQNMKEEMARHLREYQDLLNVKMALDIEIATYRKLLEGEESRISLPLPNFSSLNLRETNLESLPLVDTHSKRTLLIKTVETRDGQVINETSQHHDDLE
purified hamster vimentin, sequence (P02544 whole entry): as the sequence (P02544 whole entry) above

As for `CC1=C(CO)C(=O)O[C@@H]([C@@H](C)[C@H]2CC[C@H]3[C@@H]4C[C@H]5O[C@]56[C@@H](O)C=CC(=O)[C@]6(C)[C@H]4CC[C@]23C)C1` [WFA, Withaferin A], on bovine 20S proteasome (10 μM), the “inhibition of the 20S proteasome's major catalytic function” value was “minimally inhibits”. The “Kobs/[I], efficiency of inactivation” value on bovine 20S proteasome (WFA 0.5-10 μM, epoxomicin 10-75 nM) was found to be 340±80 M^−1S^−1. The “rate of apoptosis, wild-type cells versus vimentin-deficient cells” value in [1] is listed as 7 fold. In addition, the inhibition of neovascularization in experiment [2] (vimentin-null mice, n=10, P=0.005) turned out to be 29%; in experiment [2] (wild-type mice, n=8, P=0.002), 73%. The “effect on vimentin polymerization” value in experiment [3] is given as “produces extensive filamentous aggregates”. The “concentration giving dose-dependent increases in vimentin cleavage products” value in the experiment with vimentin in HUVECs (detectable by 2 hours) was “above 2 μM”. For the same molecule, the “levels of polyubiquitinated proteins” value in experiment [4] is on record as “increases levels of polyubiquitinated proteins”. Also, in the experiment with BAECs, the vimentin filament phenotype entry was “condensation of vimentin filaments around the perinuclear region”. Moreover, the “covalent modification of cysteine residue at position 327” value in [5] is on record as “uniquely modified by WFA”.
Take `CC1=C(COC(=O)CNC(=O)CCCCCNC(=O)CCCCCNC(=O)CCCCC2SCC3NC(=O)NC32)C(=O)OC([C@@H](C)C2CCC3C4C[C@H]5O[C@]56C(O)C=CC(=O)[C@]6(C)C4CC[C@@]32C)C1` (stereo partly drawn) [WFA-B, WFA-Gly-LC-LC-biotin]: the “in vitro binding to vimentin” value at soluble hamster vimentin was “bound by WFA-B in a WFA-competitive manner”. Also, the “effect on full-length vimentin isoforms (two-dimensional western blot)” value in the experiment on vimentin in HUVECs (data not shown) was “causes several full-length (˜53-56 kDa) isoforms of vimentin to disappear”. Further, the “binding to 56 kDa protein in cells” value in [6] is listed as “binds to the 56 kDa protein in HUVECs”.
Consider `CC1=C(CO)C(=O)O[C@@H]([C@@H](C)[C@H]2CC[C@H]3[C@@H]4[C@@H]5O[C@@H]5[C@@]5(O)CC=CC(=O)[C@]5(C)[C@H]4CC[C@]23C)C1` [12-D WS], for which, at soluble hamster vimentin, the “in vitro binding to vimentin” value is on record as “lack of in vitro binding activity”. Besides, the “effect on vimentin polymerization” value in experiment [3] was “does not disrupt vimentin polymerization”.
